Reference: PubChem BioAssay (NCI)
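Grown in 96-well plates, cells were treated for 48 hours with each compound at five concentrations. Insufficient inhibition: endpoint recorded as highest concentration tested. Abbreviation: GI50, concentration required for 50% inhibition of growth. TGI: total growth inhibition.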

Key:
Test in all cases: NCI anticancer screen, dose series, 48 h
T-47D breast = system: T-47D breast
SF-295 CNS = system: SF-295 CNS
HOP-62 NSCLC = system: HOP-62 NSCLC
OVCAR-5 ovarian = system: OVCAR-5 ovarian
PC-3 prostate = system: PC-3 prostate
UACC-257 melanoma = system: UACC-257 melanoma
HOP-92 NSCLC = system: HOP-92 NSCLC
K-562 leukemia = system: K-562 leukemia
HS 578T breast = system: HS 578T breast
OVCAR-8 ovarian = system: OVCAR-8 ovarian

Row | Structure (SMILES) | GI50 (T-47D breast) [µM] | TGI (T-47D breast) [µM] | GI50 (SF-295 CNS) [µM] | TGI (SF-295 CNS) [µM] | GI50 (HOP-62 NSCLC) [µM] | TGI (HOP-62 NSCLC) [µM] | GI50 (OVCAR-5 ovarian) [µM] | TGI (OVCAR-5 ovarian) [µM] | GI50 (PC-3 prostate) [µM] | TGI (PC-3 prostate) [µM] | GI50 (UACC-257 melanoma) [µM] | TGI (UACC-257 melanoma) [µM] | GI50 (HOP-92 NSCLC) [µM] | TGI (HOP-92 NSCLC) [µM] | GI50 (K-562 leukemia) [µM] | TGI (K-562 leukemia) [µM] | GI50 (HS 578T breast) [µM] | TGI (HS 578T breast) [µM] | GI50 (OVCAR-8 ovarian) [µM] | TGI (OVCAR-8 ovarian) [µM]
1 | CCCCN1CCCC[C@@H]1C(=O)N[C@H](C(=O)N(C)[C@H](C[C@@H](OC(C)=O)c1nc(C(=O)NC2CCC(C(=O)OC)CC2)cs1)C(C)C)C(C)C (stereo partly drawn) | 1.62 | > 25 | 1.01 | 8.06 | 2.35 | > 25 | 4.75 | > 25 | 1.41 | > 25 | 2.42 | > 25 | 1.13 | > 25 | 0.691 | > 25 | 1.96 | > 25 | 2.1 | > 25
2 | C[C@H]1/C(=C/C(=O)OCCN(C)C)CC[C@H]2[C@H]1C(=O)C[C@H]1C(C)(C)[C@@H](O)CC[C@]21C | – | > 100 | – | > 100 | – | > 100 | – | > 100 | – | > 100 | – | > 100 | – | > 100 | > 100 | > 100 | – | > 100 | – | > 100
3 | COc1ccc(C#Cc2ccc(=O)oc2-c2cc(OC)c(OC)c(OC)c2)cc1O | – | > 100 | 4.49 | > 45.2 | 5.12 | > 64.6 | 24 | > 100 | 8.22 | > 100 | 7.87 | > 100 | 0.575 | 38.8 | 0.505 | > 100 | 7.4 | > 81.9 | 10.6 | > 100
4 | CC(=O)/C(=C/c1ccccc1)C(=O)CC(C)C | 24 | 91.9 | – | – | 26.8 | 71.8 | 17.7 | 41.6 | 25.6 | 93.6 | 13.9 | 28.9 | 32.7 | > 100 | 3.77 | > 100 | 3.89 | 21.2 | 17.6 | 53
5 | O=C(CCl)NCCNc1nccc(Nc2ccc(S(=O)(=O)Nc3ccccn3)cc2)n1 | 1.9 | 8.33 | 2.39 | 7.66 | 2.17 | 5.46 | 2.28 | 5.1 | 2.5 | 7.45 | 2.54 | 14.4 | 3.46 | 9.09 | 2.57 | 17 | 5.23 | > 100 | 3.84 | > 100
